Assay results: patent US7989469B2, “Certain chemical entities, compositions, and methods” (Cytokinetics, Incorporated, priority 2008, dated 2011)

system: rabbit skeletal muscle myofibril preparations (approximately 90% fast fibers); test: Activation of fast skeletal muscle fibers: enzymatic activity of myofibril preparations (PUMA assay system); format: biochemical; design: unit not given here; details: detergent treated myofibrils at pCa25%, 500 μM ATP; cells marked †: Mean value
Description: Fast fiber activators were identified by measuring the enzymatic activity of muscle myofibril preparations using the proprietary PUMA™ (see, e.g., U.S. Pat. Nos. 6,410,254, 6,743,599, 7,202,051, and 7,378,254) assay system. Myofibril preparations consisted of rabbit skeletal muscle (approximately 90% fast fibers) that had been treated with a detergen (triton X-100) to remove cellular membranes and then homogenized. This preparation retained all of the sarcomeric components in a native conformation and the enzymatic activity was still regulated by calcium. Compounds were tested using a myofibril suspension and a level of calcium sufficient to increase enzymatic activity of the myofibrils to 25% of their maximal rate (termed pCa25%). Enzymatic activity was tracked via a kinetic assay with a UV absorption readout. Hits were identified as compounds that increased the rate of enzymatic activity by greater than 40% at 40 μM. Myofibril preparations are calcium regulated and were screened at a level of calcium sufficient to produce a 25% increase in enzymatic rate. Detergent treated myofibrils were incubated with 500 μM ATP and 40 μM compound and a kinetic read of UV absorbance performed. Data was normalized to control wells.

For “6-chloro-1-(ethylpropyl)-7-(2-fluorophenyl)imidazo[4,5-b]pyridin-2-ol”, the “AC1.4 Median” value was 0.230†.
With `CC[C@H](COC(C)=O)c1nc2nc(O)[nH]c2c(-c2ccc(F)cc2)c1Cl` [(2S)-2-[6-chloro-7-(4-fluorophenyl)-2-hydroxyimidazo[4,5-b]pyridinyl]butyl acetate] the “AC1.4 Median” value was 0.234†.
In the case of “6-chloro-1-(ethylpropyl)-7-(3-fluorophenyl)imidazo[4,5-b]pyridin-2-ol”, the “AC1.4 Median” value is reported as 0.248†.
With “4-[6-chloro-1-(ethylpropyl)-2-hydroxyimidazo[4,5-b]pyridin-7-yl]benzenecarbonitrile” the “AC1.4 Median” value was 0.405†.
For “6-chloro-1-(ethylpropyl)-7-[4-(trifluoromethyl)phenyl]imidazo[4,5-b]pyridin-2-ol”, the “AC1.4 Median” value was 0.274†.
For “6-chloro-7-(4-chlorophenyl)-1-(ethylpropyl)imidazo[4,5-b]pyridin-2-ol”, the “AC1.4 Median” value was 0.074†.
`CC[C@@H](CO)n1c(O)nc2ncc(Cl)c(-c3ccc(Cl)cc3)c21` [1-((1S)-1-ethyl-2-hydroxyethyl)-6-chloro-7-(4-chlorophenyl)imidazo[4,5-b]pyridin-2-ol] was tested, and the “AC1.4 Median” value was 0.261†.
For “6-chloro-7-(5-chloro(2-pyridyl))-1-(ethylpropyl)imidazo[4,5-b]pyridin-2-ol”, the “AC1.4 Median” value was 0.320†.
In the case of `CC[C@@H](CCO)n1c(O)nc2ncc(Cl)c(-c3ccc(F)cc3)c21` [1-((1S)-1-ethyl-3-hydroxypropyl)-6-chloro-7-(4-fluorophenyl)imidazo[4,5-b]pyridin-2-ol], the “AC1.4 Median” value is reported as 0.475†.

same assay, conditions: detergent treated myofibrils at pCa25%, 500 μM ATP; median value (no †)

First: CC[C@@H](CO)n1c(O)nc2ncc(Cl)c(-c3cccs3)c21 [1-((1S)-1-ethyl-2-hydroxyethyl)-6-chloro-7-(2-thienyl)imidazo[4,5-b]pyridin-2-ol]
Second: CC[C@@H](C)n1c(O)nc2nccc(-n3cccn3)c21 [1-((1R)-1-methylpropyl)-7-pyrazolylimidazo[4,5-b]pyridin-2-ol]
The “AC1.4 Median” value of the first is lower: 1.349 for the first, 18.6973 for the second.

First: methyl 3-[6-chloro-1-(ethylpropyl)-2-hydroxyimidazo[4,5-b]pyridin-7-yl]benzoate
Second: CC[C@@H](CN)n1c(O)nc2ncc(Cl)c(-c3ccc(F)cc3)c21 [1-((1S)-2-amino-1-ethylethyl)-6-chloro-7-(4-fluorophenyl)imidazo[4,5-b]pyridin-2-ol]
The “AC1.4 Median” value of the first is lower: 9.682 for the first, 24.3174 for the second.

Compared with `C[C@@H](CCO)n1c(O)nc2ncc(Cl)c(-c3ccc(F)cc3)c21` [1-((1S)-3-hydroxy-1-methylpropyl)-6-chloro-7-(4-fluorophenyl)imidazo[4,5-b]pyridin-2-ol], `CC[C@@H](CO)n1c(O)nc2ncc(Cl)c(-c3ccc(OC)cc3)c21` [1-((1S)-1-ethyl-2-hydroxyethyl)-6-chloro-7-(4-methoxyphenyl)imidazo[4,5-b]pyridin-2-ol] is higher in “AC1.4 Median” value: 2.309 for the first, 5.251 for the second.

First: 6-chloro-1-(ethylpropyl)-7-(3-methylphenyl)imidazo[4,5-b]pyridin-2-ol
Second: 7-(1H-indazol-6-yl)-6-chloro-1-(ethylpropyl)imidazo[4,5-b]pyridin-2-ol
The “AC1.4 Median” value of the first is lower: 0.482 for the first, 4.216 for the second.

First: CCC(COP(=O)(O)O)c1nc2nc(O)[nH]c2c(-c2ccc(F)c(F)c2)c1Cl (centres unmarked) [2-[7-(3,4-difluorophenyl)-6-chloro-2-hydroxyimidazo[4,5-b]pyridinyl]butyl dihydrogen phosphate]
Second: 6-chloro-1-(ethylpropyl)-7-(3-methoxyphenyl)imidazo[4,5-b]pyridin-2-ol
The “AC1.4 Median” value of the first is higher: 44.713 for the first, 2.001 for the second.

Compared with “(tert-butoxy)-N-{4-[6-chloro-1-(ethylpropyl)-2-hydroxyimidazo[4,5-b]pyridin-7-yl]phenyl}-N-methylcarboxamide”, “6-chloro-1-(ethylpropyl)-7-(1-methylpyrazol-3-yl)imidazo[4,5-b]pyridin-2-ol” is lower in “AC1.4 Median” value: 42.343 for the first, 1.7950 for the second.

Going from `CC[C@@H](CNC(C)=O)c1nc2nc(O)[nH]c2c(-c2ccc(F)cc2)c1Cl` [N-{(2S)-2-[6-chloro-7-(4-fluorophenyl)-2-hydroxyimidazo[4,5-b]pyridinyl]butyl}acetamide] to “6-chloro-1-(ethylpropyl)-7-(2-methoxy(4-pyridyl))imidazo[4,5-b]pyridin-2-ol”, the “AC1.4 Median” value falls from 8.4925 to 2.808.

Going from “6-chloro-7-(5-fluoro(2-pyridyl))-1-(methylethyl)imidazo[4,5-b]pyridin-2-ol” to “6-chloro-7-(5-chloro(3-pyridyl))-1-(ethylpropyl)imidazo[4,5-b]pyridin-2-ol”, the “AC1.4 Median” value falls from 2.323 to 1.899.

First: 6-chloro-1-(ethylpropyl)-7-(5-methyl(2-pyridyl))imidazo[4,5-b]pyridin-2-ol
Second: CC[C@H](CCO)n1c(O)nc2ncc(Cl)c(-c3ccc(F)cc3)c21 [1-((1R)-1-ethyl-3-hydroxypropyl)-6-chloro-7-(4-fluorophenyl)imidazo[4,5-b]pyridin-2-ol]
The “AC1.4 Median” value of the first is higher: 5.708 for the first, 2.547 for the second.

First: CC[C@H](COC)n1c(O)nc2ncc(Cl)c(-c3ccc(F)cn3)c21 [1-[(1R)-1-(methoxymethyl)propyl]-6-chloro-7-(5-fluoro(2-pyridyl))imidazo[4,5-b]pyridin-2-ol]
Second: CC[C@H](n1c(O)nc2ncc(Cl)c(-c3ccc(F)cn3)c21)C(C)(C)O [1-((1S)-1-ethyl-2-hydroxy-2-methylpropyl)-6-chloro-7-(5-fluoro(2-pyridyl))imidazo[4,5-b]pyridin-2-ol]
The “AC1.4 Median” value of the first is lower: 1.142 for the first, 6.420 for the second.

Going from “{4-[6-chloro-1-(ethylpropyl)-2-hydroxyimidazo[4,5-b]pyridin-7-yl]phenyl}(methylsulfonyl)amine” to “2-[6-chloro-1-(ethylpropyl)-2-hydroxyimidazo[4,5-b]pyridin-7-yl]benzamide”, the “AC1.4 Median” value rises from 26.368 to 36.169.

First: 6-chloro-1-(ethylpropyl)-7-(4-methyl(2-pyridyl))imidazo[4,5-b]pyridin-2-ol
Second: CCC(CC)n1c(O)nc2ncc(Cl)c(-c3cccc(C=O)c3)c21 [3-[6-chloro-1-(ethylpropyl)-2-hydroxyimidazo[4,5-b]pyridin-7-yl]benzaldehyde]
The “AC1.4 Median” value of the first is higher: 11.301 for the first, 1.943 for the second.

First: CCC(CC)n1c(O)nc2ncc(Cl)c(-c3ccc(S(C)(=O)=O)cc3)c21 [1-[6-chloro-1-(ethylpropyl)-2-hydroxyimidazo[4,5-b]pyridin-7-yl]-4-(methylsulfonyl)benzene]
Second: 6-chloro-1-(ethylpropyl)-7-(1-methyl(1H-indazol-5-yl))imidazo[4,5-b]pyridin-2-ol
The “AC1.4 Median” value of the first is higher: 45.324 for the first, 5.365 for the second.

First: CC[C@H](CC(C)(C)O)n1c(O)nc2ncc(Cl)c(-c3ccc(F)cc3)c21 [1-((1R)-1-ethyl-3-hydroxy-3-methylbutyl)-6-chloro-7-(4-fluorophenyl)imidazo[4,5-b]pyridin-2-ol]
Second: CC[C@H](COC(=O)[C@@H](N)C(C)C)c1nc2nc(O)[nH]c2c(-c2ccc(F)c(F)c2)c1Cl [(2S)-2-[7-(3,4-difluorophenyl)-6-chloro-2-hydroxyimidazo[4,5-b]pyridinyl]butyl (2S)-2-amino-3-methylbutanoate]
The “AC1.4 Median” value of the first is lower: 2.9192 for the first, 6.640 for the second.

Compared with `CC[C@H](c1nc2nc(O)[nH]c2c(-c2ccc(F)cc2)c1Cl)C(CO)CO` [2-{(1S)-1-[6-chloro-7-(4-fluorophenyl)-2-hydroxyimidazo[4,5-b]pyridinyl]propyl}propane-1,3-diol], “6-chloro-1-(ethylpropyl)-7-(3-fluoro-4-methoxyphenyl)imidazo[4,5-b]pyridin-2-ol” is lower in “AC1.4 Median” value: 4.6812 for the first, 2.102 for the second.

Going from `CC[C@@H](CO)n1c(O)nc2ncc(Cl)c(-c3cnccn3)c21` [1-((1S)-1-ethyl-2-hydroxyethyl)-6-chloro-7-pyrazin-2-ylimidazo[4,5-b]pyridin-2-ol] to `CC[C@H](C)n1c(O)nc2ncc(Cl)cc21` [1-((1S)-1-methylpropyl)-6-chloroimidazo[4,5-b]pyridin-2-ol], the “AC1.4 Median” value falls from 40.701 to 1.7291.

Going from “6-chloro-1-(ethylpropyl)-7-(3-fluoro(4-pyridyl))imidazo[4,5-b]pyridin-2-ol” to `Cn1c(O)nc2ncc(Cl)c(-c3ccc(F)cc3)c21` [6-chloro-7-(4-fluorophenyl)-1-methylimidazo[4,5-b]pyridin-2-ol], the “AC1.4 Median” value rises from 1.709 to 12.620.

First: CCC(CC)n1c(O)nc2ncc(Cl)c(-c3ccccc3C=O)c21 [2-[6-chloro-1-(ethylpropyl)-2-hydroxyimidazo[4,5-b]pyridin-7-yl]benzaldehyde]
Second: CC[C@H](COP(=O)(O)O)c1nc2nc(O)[nH]c2c(-c2ccc(F)cc2)c1Cl [(2S)-2-[6-chloro-7-(4-fluorophenyl)-2-hydroxyimidazo[4,5-b]pyridinyl]butyl dihydrogen phosphate]
The “AC1.4 Median” value of the first is lower: 1.689 for the first, 31.644 for the second.

First: 6-chloro-1-(ethylpropyl)-7-[3-(hydroxymethyl)phenyl]imidazo[4,5-b]pyridin-2-ol
Second: 6-chloro-1-(ethylpropyl)-7-(2-methyl(4-pyridyl))imidazo[4,5-b]pyridin-2-ol
The “AC1.4 Median” value of the first is higher: 14.377 for the first, 14.091 for the second.

First: CC[C@@H](CO)n1c(O)nc2ncc(Cl)c(-c3ccc(Cl)cc3)c21 [1-((1S)-1-ethyl-2-hydroxyethyl)-6-chloro-7-(4-chlorophenyl)imidazo[4,5-b]pyridin-2-ol]
Second: CC(C)CC(CO)n1c(O)nc2ncc(Cl)c(-c3ccc(F)cc3)c21 (centres unmarked) [6-chloro-7-(4-fluorophenyl)-1-[2-hydroxy-1-(2-methylpropyl)ethyl]imidazo[4,5-b]pyridin-2-ol]
The “AC1.4 Median” value of the first is higher: 2.059 for the first, 0.210 for the second.

For `CC[C@@H](CO)n1c(O)nc2ncc(Cl)c(-c3ccc(F)c(F)c3)c21` [1-((1S)-1-ethyl-2-hydroxyethyl)-7-(3,4-difluorophenyl)-6-chloroimidazo[4,5-b]pyridin-2-ol], the “AC1.4 Median” value was 0.707.
